Data as given in ChEMBL document CHEMBL2074361, “Effect of mdr1a P-glycoprotein gene disruption, gender, and substrate concentration on brain uptake of selected compounds” (Pharm Res, 2001).

Target: ATP-dependent translocase ABCB1 (Mus musculus, UniProt P21447)
Assay: TP_TRANSPORTER: increase in brain concentration in mdr1a(-/-) mouse
Assay type: functional, organism-based
Conditions: in vivo

Sequence of ATP-dependent translocase ABCB1 (P21447 whole entry): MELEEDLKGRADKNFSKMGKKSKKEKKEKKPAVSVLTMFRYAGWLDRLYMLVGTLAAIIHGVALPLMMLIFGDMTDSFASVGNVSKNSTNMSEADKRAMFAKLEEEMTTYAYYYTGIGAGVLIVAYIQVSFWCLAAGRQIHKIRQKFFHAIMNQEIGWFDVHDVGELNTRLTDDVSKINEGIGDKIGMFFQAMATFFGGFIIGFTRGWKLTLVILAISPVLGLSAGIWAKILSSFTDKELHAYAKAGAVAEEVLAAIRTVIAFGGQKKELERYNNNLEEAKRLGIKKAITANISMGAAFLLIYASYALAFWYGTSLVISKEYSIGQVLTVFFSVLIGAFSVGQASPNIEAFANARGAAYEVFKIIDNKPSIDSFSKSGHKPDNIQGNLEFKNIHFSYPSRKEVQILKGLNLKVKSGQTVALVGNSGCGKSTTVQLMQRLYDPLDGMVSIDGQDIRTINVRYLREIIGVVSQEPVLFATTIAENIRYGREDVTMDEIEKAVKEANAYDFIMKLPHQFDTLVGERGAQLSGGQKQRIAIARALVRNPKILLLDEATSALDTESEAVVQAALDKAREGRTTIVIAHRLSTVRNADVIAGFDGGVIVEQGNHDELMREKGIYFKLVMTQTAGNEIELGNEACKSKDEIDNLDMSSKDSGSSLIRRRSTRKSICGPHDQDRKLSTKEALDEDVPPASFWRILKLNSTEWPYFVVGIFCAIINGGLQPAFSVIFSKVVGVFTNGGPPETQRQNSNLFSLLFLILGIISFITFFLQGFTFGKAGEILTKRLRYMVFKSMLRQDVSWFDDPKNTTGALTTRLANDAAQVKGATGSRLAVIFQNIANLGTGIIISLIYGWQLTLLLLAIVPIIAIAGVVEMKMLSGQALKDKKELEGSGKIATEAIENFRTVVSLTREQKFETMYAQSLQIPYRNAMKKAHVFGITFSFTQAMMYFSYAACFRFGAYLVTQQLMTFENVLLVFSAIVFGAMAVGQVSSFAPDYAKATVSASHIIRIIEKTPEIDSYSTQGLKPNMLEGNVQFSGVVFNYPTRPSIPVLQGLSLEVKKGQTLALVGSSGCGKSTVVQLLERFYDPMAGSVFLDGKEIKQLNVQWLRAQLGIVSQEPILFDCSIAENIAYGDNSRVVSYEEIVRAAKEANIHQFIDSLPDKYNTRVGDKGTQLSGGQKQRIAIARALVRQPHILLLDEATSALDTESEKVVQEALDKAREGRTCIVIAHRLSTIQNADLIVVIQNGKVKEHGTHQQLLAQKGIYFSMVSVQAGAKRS

SMILES	Activity
C=C[C@H]1C[N@@]2CC[C@H]1C[C@@H]2[C@@H](O)c1ccnc2ccc(OC)cc12 [QUINIDINE]	substrate [+]
CN1CC[C@]23c4c5ccc(O)c4O[C@H]2[C@@H](O)C=C[C@H]3[C@H]1C5 [MORPHINE]	substrate [+]
